Data taken from patent publication US10689340B2, “Substituted indoline derivatives as dengue viral replication inhibitors” (priority 2016, dated 2020).
Structures can show the parent of a compound that is named as a salt.

Key:
[1] = test system: DENV-2 strain 16681; experiment: Tetravalent RT-qPCR assay, serotype 2; type: cell-based; details: Dengue virus, DENV2, 72 h; RT-qPCR serotype 2 16681, Protocol A, Vero cells, day 3
Protocol: (§1) The antiviral activity of the compounds of the invention was tested against DENV-1 strain TC974#666 (NCPV), DENV-2 strain 16681, DENV-3 strain H87 (NCPV) and DENV-4 strain H241 (NCPV) in a RT-qPCR assay. Therefore, Vero cells were infected with either DENV-1, or -2, or -3, or -4 in the presence or absence of test compounds. At day 3 post-infection, the cells were lysed and cell lysates were used to prepare cDNA of both a viral target (the 3′UTR of DENV; Table 2) and a cellular reference gene (β-actin, Table 2). Subsequently, a duplex real time PCR was performed on a Lightcycler480 instrument. The generated Cp value is inversely proportional to the amount of RNA expression of these targets. Inhibition of DENV replication by a test compound results in a shift of Cp's for the 3′UTR gene. On the other hand, if a test compound is toxic to the cells, a similar effect on β-actin expression will be observed. The comparative ΔΔCp method is used to calculate EC50, which is based on the relative gene expression of the target gene (3′UTR) normalized with the cellular housekeeping gene (β-actin). In addition, CC50 values are determined based on the Cp values acquired for the housekeeping gene β-actin.
(§2) The culture medium consisted of minimal essential medium supplemented with 2% of heat-inactivated fetal calf serum, 0.04% gentamycin (50 mg/mL) and 2 mM of L-glutamine. Vero cells, obtained from ECACC, were suspended in culture medium and 75 μL/well was added in 96-well plates (10000 cells/well), which already contain the antiviral compounds. […] In addition, each plate contains wells which are assigned as virus controls (containing cells and virus in the absence of compound) and cell controls (containing cells in the absence of virus and compound). Once the cells were added in the plates, the plates were incubated in a fully humidified incubator (37° C., 5% CO2) until the next day. Dengue viruses serotype-1, -2, -3 and -4 were diluted in order to obtain a Cp of ˜22-24 in the assay. Therefore, 25 μL of virus suspension was added to all the wells containing test compound and to the wells assigned as virus control. In parallel, 25 μL of culture medium was added to the cell controls. Next, the plates were incubated for 3 days in a fully humidified incubator (37° C., 5% CO2). After 3 days, the supernatant was removed from the wells and the cells were washed twice with ice-cold PBS (˜100 μL). The cell pellets within the 96-well plates were stored at −80° C. for at least 1 day. Next, RNA was extracted using the Cells-to-CT^Tm lysis kit, according to the manufacturer's guideline (Life Technologies). The cell lysates can be stored at −80° C. or immediately used in the reverse transcription step.
(§3) In preparation of the reverse transcription step, mix A (table 3A) was prepared and 7.57 μL/well was dispensed in a 96-well plate. After addition of 5 μL of the cell lysates, a five minute denaturation step at 75° C. was performed (table 3B). Afterwards, 7.43 μL of mix B was added (table 3C) and the reverse transcription step was initiated (table 3D) to generate cDNA.
(§4) Finally, a RT-qPCR mix was prepared, mix C (table 4A), and 22.02 μL/well was dispensed in 96-well LightCycler qPCR plates to which 3 μL of cDNA was added and the qPCR was performed according to the conditions in table 4B on a LightCycler 480.
(§5) Using the LightCycler software and an in-house LIMS system, dose response curves for each compound were calculated and the half maximal effective concentration (EC50) and the half maximal cytotoxic concentration (CC50) were determined (Tables 5-8).

[2] = test system: DENV-1 strain TC974#666; experiment: Tetravalent RT-qPCR assay, serotype 1; type: cell-based; details: Dengue virus, DENV1, Vero, 72 h
Protocol: as §1, §2, §3, §4, §5

[3] = in vitro; details: African green monkey
[4] = test system: DENV-4 strain H241; experiment: Tetravalent RT-qPCR assay, serotype 4; type: cell-based; details: Dengue virus, DENV4, 72 h; RT-qPCR serotype 4 H241, Protocol A, Vero cells, day 3
Protocol: as §1, §2, §3, §4, §5

[5] = test system: DENV-2 16681 strain; experiment: DENV-2 antiviral assay (eGFP fluorescence); type: cell-based, Dengue virus; details: DENV-2 16681 eGFP, Vero cells, MOI 0.5, 3 days
Protocol: The antiviral activity of all the compounds of the invention was tested against the DENV-2 16681 strain which was labeled with enhanced green fluorescent protein (eGPF). The culture medium consists of minimal essential medium supplemented with 2% of heat-inactivated fetal calf serum, 0.04% gentamycin (50 mg/mL) and 2 mM of L-glutamine. Vero cells, obtained from ECACC, were suspended in culture medium and 25 μL was added to 384-well plates (2500 cells/well), which already contain the antiviral compounds. Typically, these plates contain a 5-fold serial dilution of 9 dilution steps of the test compound at 200 times the final concentration in 100% DMSO (200 nL). […] Finally, each plate contains wells which are assigned as virus controls (containing cells and virus in the absence of compound), cell controls (containing cells in the absence of virus and compound) and medium controls (containing medium in the absence of cells, virus and compounds). To the wells assigned as medium control, 25 μL of culture medium was added instead of Vero cells. Once the cells were added to the plates, the plates were incubated for 30 minutes at room temperature to allow the cells to distribute evenly within the wells. Next, the plates were incubated in a fully humidified incubator (37° C., 5% CO2) until the next day. Then, DENV-2 strain 16681, labeled with eGFP, was added at a multiplicity of infection (MOI) of 0.5. Therefore, 15 μL of virus suspension was added to all the wells containing test compound and to the wells assigned as virus control. In parallel, 15 μL of culture medium was added to the medium and cell controls. Next, the plates were incubated for 3 days in a fully humidified incubator (37° C., 5% CO2). At the day of the read out, the eGFP fluorescence was measured using an automated fluorescence microscope at 488 nm (blue laser). Using an in-house LIMS system, inhibition dose response curves for each compound were calculated and the half maximal effective concentration (EC50) was determined. Therefore, the percent inhibition (I) for every test concentration is calculated using the following formula: I=100*(ST-SCC)/(SVC-SCC); ST, SCC and SVC are the amount of eGFP signal in the test compound, cell control and virus control wells, respectively. The EC50, represents the concentration of a compound at which the virus replication is inhibited with 50%, as measured by a 50% reduction of the eGFP fluorescent intensity compared to the virus control. The EC50 is calculated using linear interpolation (Table 1).

[6] = test system: DENV-3 strain H87; experiment: Tetravalent RT-qPCR assay, serotype 3; type: cell-based; details: Dengue virus, DENV3, 72 h; RT-qPCR serotype 3 H87, Protocol A, Vero cells, day 3
Protocol: as §1, §2, §3, §4, §5

[7] = test system: Vero cells; details: African green monkey

SMILES	melting point	EC50 [1]	EC50 [2]	CC50 [3]	EC50 [4]	EC50 [5]	EC50 [6]	CC50 [7]
COc1cc(NC(C(=O)N2CCc3ccc(C(F)(F)F)cc32)c2ccc(Cl)cc2OC)cc(OCCCC(=O)O)c1 (racemic) (as salt: HCl) [Compound 6, 4-(3-((1-(4-chloro-2-methoxyphenyl)-2-oxo-2-(6-(trifluoro-methyl)indolin-1-yl)ethyl)amino)-5-methoxyphenoxy)butanoic acid]	178 °C							
COc1cc(NC(C(=O)N2CCc3ccc(OC(F)(F)F)cc32)c2ccc(Cl)cc2F)cc(OCCCC(=O)O)c1 (single isomer, unassigned) [Compound 10A]		0.2 nM	0.16 nM	13000 nM	10 nM	0.19 nM	2.1 nM	
COc1cc(NC(C(=O)N2CCc3cc(OC)c(OC(F)(F)F)cc32)c2ccc(Cl)cc2)cc(OCCCC(=O)O)c1 (single isomer, unassigned) [Compound 12B]		0.22 nM	0.68 nM		28 nM	0.35 nM	4.1 nM	12000 nM
COc1cc(NC(C(=O)N2CCc3ccc(OC(F)(F)F)cc32)c2ccc(Cl)cc2)cc(OCCCC(=O)O)c1 (single isomer, unassigned) [Compound 4B]		0.06 nM	0.048 nM		11 nM	0.12 nM	0.66 nM	13000 nM
COc1cc(NC(C(=O)N2CCc3cc(OC)c(C(F)(F)F)cc32)c2ccc(Cl)cc2OC)cc(OCCCC(=O)O)c1 (racemic) (as salt: HCl) [Compound 7, 4-(3-((1-(4-chloro-2-methoxyphenyl)-2-(5-methoxy-6-(trifluoromethyl)indolin-1-yl)-2-oxoethyl)amino)-5-methoxyphenoxy)butanoic acid]	160 °C							
COc1cc(NC(C(=O)N2CCc3ccc(OC(F)(F)F)cc32)c2ccc(Cl)cc2OC)cc(OCCCC(=O)O)c1 (single isomer, unassigned) [Compound 8B]		0.062 nM	0.15 nM		12 nM	0.066 nM	1 nM	14000 nM
COc1cc(NC(C(=O)N2CCc3cc(OC)c(C(F)(F)F)cc32)c2ccc(Cl)cc2F)cc(OCCCC(=O)O)c1 (racemic) (as salt: HCl) [Compound 11, 4-(3-((1-(4-chloro-2-fluorophenyl)-2-(5-methoxy-6-(trifluoromethyl)indolin-1-yl)-2-oxoethyl)amino)-5-methoxyphenoxy)butanoic acid]	121 °C							
COc1cc(NC(C(=O)N2CCc3ccc(C(F)(F)F)cc32)c2ccc(Cl)cc2F)cc(OCCCC(=O)O)c1 (racemic) (as salt: HCl) [Compound 9, 4-(3-((1-(4-chloro-2-fluorophenyl)-2-oxo-2-(6-(trifluoromethyl)indolin-1-yl)ethyl)amino)-5-methoxy-phenoxy)butanoic acid]	110 °C							
COc1cc(NC(C(=O)N2CCc3ccc(C(F)(F)F)cc32)c2ccc(Cl)cc2)cc(OCCCC(=O)O)c1 (single isomer, unassigned) [Compound 3B]		0.12 nM	0.18 nM		14 nM	0.14 nM	1.1 nM	13000 nM
COc1cc(NC(C(=O)N2CCc3cc(OC)c(C(F)(F)F)cc32)c2ccc(Cl)cc2)cc(OCCCC(=O)O)c1 (single isomer, unassigned) [Compound 5B]		0.17 nM	0.74 nM		24 nM	0.18 nM	4.6 nM	13000 nM
COc1cc(NC(C(=O)N2CCc3ccc(C(F)(F)F)cc32)c2ccc(F)cc2)cc(OCCCC(=O)O)c1 (single isomer, unassigned) [Compound 1B]		0.48 nM	0.28 nM		51 nM	0.84 nM	3.4 nM	20000 nM
COc1cc(NC(C(=O)N2CCc3cc(OC)c(C(F)(F)F)cc32)c2ccc(Cl)cc2OC)cc(OCCCC(=O)O)c1 (single isomer, unassigned) [Compound 7B]		0.28 nM	0.61 nM		25 nM	0.17 nM	5.8 nM	13000 nM
COc1cc(NC(C(=O)N2CCc3cc(OC)c(C(F)(F)F)cc32)c2ccc(Cl)cc2F)cc(OCCCC(=O)O)c1 (single isomer, unassigned) [Compound 11B]		0.17 nM	0.67 nM		22 nM	0.15 nM	5.4 nM	12000 nM
COc1cc(NC(C(=O)N2CCc3ccc(OC(F)(F)F)cc32)c2ccc(F)cc2)cc(OCCCC(=O)O)c1 (racemic) (as salt: HCl) [Compound 2, 4-(3-((1-(4-fluorophenyl)-2-oxo-2-(6-(trifluoromethoxy)indolin-1-yl)ethyl)amino)-5-methoxyphenoxy)butanoic acid]	136 °C							
COc1cc(NC(C(=O)N2CCc3ccc(C(F)(F)F)cc32)c2ccc(Cl)cc2F)cc(OCCCC(=O)O)c1 (single isomer, unassigned) [Compound 9B]		0.3 nM	0.22 nM		31 nM	0.4 nM	4.1 nM	13000 nM
COc1cc(NC(C(=O)N2CCc3ccc(OC(F)(F)F)cc32)c2ccc(F)cc2)cc(OCCCC(=O)O)c1 (single isomer, unassigned) [Compound 2B]		0.28 nM	0.3 nM		30 nM	0.24 nM	4.6 nM	20000 nM
